Consider one compound from BindingDB's records for patent US20240343720 (Xizang Haisco Pharmaceutical, 2024).

pIC50: −log10 of the molar value.

This test deals with AP2-associated protein kinase 1 (Homo sapiens, UniProt Q2M2I8). As to the kind of experiment: In Vitro AAK1 Enzyme Activity Assay. On the procedure:
Compound stock solution (concentration: 10 mM, dissolved in DMSO) was diluted with DMSO to 0.2 mM and then diluted with DMSO in 5-fold gradient to obtain compound solutions with 10 concentrations. Subsequently, the compound solutions with different concentrations were diluted 50-fold in 1×kinase reaction buffer (containing 40 mM Tris, 20 mM MgCl2, 0.1% BSA and 0.5 mM DTT) for later use. AAK1 (Signalchem, Cat #A01-11G-10) was diluted with 1×kinase reaction buffer to 2-fold the final concentration (final concentrations: 30 nM and 28 nM). AAK1 was added to a 384-well white plate at 2 μL/well, and the compounds were then added at 1 μL/well. The plate was sealed with a plate-sealing film, centrifuged at 1000 rpm for 30 seconds and then placed at room temperature for 10 minutes. A mixed solution of ATP (Promega, Cat #V914B) and substrate Micro2 (GenScript, Cat #PE0890) was formulated at 4-fold the final concentration (for AAK1, the corresponding final concentrations of ATP: 15 μM and 5 μM, and the corresponding final concentration of Micro2: 0.1 mg/mL). To the reaction plate was added the mixed solution of ATP and the substrate at 1 μL/well.

Chain of AP2-associated protein kinase 1 (Q2M2I8 whole entry): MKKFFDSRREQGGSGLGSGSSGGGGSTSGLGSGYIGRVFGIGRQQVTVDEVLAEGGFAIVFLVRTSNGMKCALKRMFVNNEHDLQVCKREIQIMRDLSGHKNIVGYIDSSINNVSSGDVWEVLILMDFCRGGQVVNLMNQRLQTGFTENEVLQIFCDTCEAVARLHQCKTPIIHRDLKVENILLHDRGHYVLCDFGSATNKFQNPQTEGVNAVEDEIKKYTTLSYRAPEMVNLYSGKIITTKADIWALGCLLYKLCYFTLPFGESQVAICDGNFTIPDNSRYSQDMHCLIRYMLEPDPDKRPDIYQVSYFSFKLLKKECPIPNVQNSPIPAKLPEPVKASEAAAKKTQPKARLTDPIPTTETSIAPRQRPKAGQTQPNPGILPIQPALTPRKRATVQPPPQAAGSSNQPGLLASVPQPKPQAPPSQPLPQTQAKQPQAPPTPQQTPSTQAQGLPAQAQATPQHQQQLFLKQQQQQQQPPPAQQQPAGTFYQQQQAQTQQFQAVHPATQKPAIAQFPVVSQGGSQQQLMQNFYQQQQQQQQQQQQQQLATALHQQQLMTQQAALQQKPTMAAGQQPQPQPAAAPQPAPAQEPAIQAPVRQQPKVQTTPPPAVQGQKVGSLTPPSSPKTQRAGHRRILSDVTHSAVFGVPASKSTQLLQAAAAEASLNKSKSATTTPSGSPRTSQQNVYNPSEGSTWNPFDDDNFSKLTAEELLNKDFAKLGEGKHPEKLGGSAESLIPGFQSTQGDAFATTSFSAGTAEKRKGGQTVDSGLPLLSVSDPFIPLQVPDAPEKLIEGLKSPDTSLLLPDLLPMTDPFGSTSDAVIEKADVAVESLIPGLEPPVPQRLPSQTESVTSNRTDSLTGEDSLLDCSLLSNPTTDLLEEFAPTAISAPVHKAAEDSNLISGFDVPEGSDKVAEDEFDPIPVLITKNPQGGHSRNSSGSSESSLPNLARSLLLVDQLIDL

With `C=C(C)C[C@](C)(N)COc1cnc(-c2ccnc(NC(=O)OC)c2)cc1C(F)F` [US20240343720, Compound 11], the pIC50 (commonly the negative decadic logarithm of the IC50, by convention in mol/L) was 8.24.
